Measurements: ChEMBL document CHEMBL1201862, “PubChem BioAssay data set” (2004)
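Each compound was tested at five concentrations against cells in 96-well plates for 48 hours. GI50 = concentration required for 50% inhibition of growth.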 Active and inactive are the calls of the source. Cut-off read from the data, not from the text of the source: active = GI50 up to about 1.1 µM and inactive = higher.

Tests used:
Assay in all cases: inhibition of tumour cell growth, NCI panel, 48 h
RXF 631 = tested on: RXF 631
HOP-92 = tested on: HOP-92
SNB-78 = tested on: SNB-78
SR = tested on: SR
SK-MEL-5 = tested on: SK-MEL-5
A549 = tested on: A549
SNB-19 = tested on: SNB-19
ACHN = tested on: ACHN
SK-OV-3 = tested on: SK-OV-3
NCI-H226 = tested on: NCI-H226
LXFL 529 = tested on: LXFL 529
DLD-1 = tested on: DLD-1
CCRF-CEM = tested on: CCRF-CEM
Malme-3M = tested on: Malme-3M
SN12C = tested on: SN12C
DMS-273 = tested on: DMS-273
OVCAR-3 = tested on: OVCAR-3
RPMI-8226 = tested on: RPMI-8226
UACC-62 = tested on: UACC-62
SNB-75 = tested on: SNB-75
SF-539 = tested on: SF-539
NCI-H460 = tested on: NCI-H460
IGROV-1 = tested on: IGROV-1
CAKI-1 = tested on: CAKI-1
SF-268 = tested on: SF-268
KM12 = tested on: KM12
786-0 = tested on: 786-0
K562 = tested on: K562
KM-20L2 = tested on: KM-20L2
LOX IMVI = tested on: LOX IMVI
A498 = tested on: A498
TK-10 = tested on: TK-10
NCI-H522 = tested on: NCI-H522
UO-31 = tested on: UO-31
OVCAR-5 = tested on: OVCAR-5
OVCAR-4 = tested on: OVCAR-4
UACC-257 = tested on: UACC-257
HCT-116 = tested on: HCT-116
HOP-62 = tested on: HOP-62
HCT-15 = tested on: HCT-15
SW-620 = tested on: SW-620
U-251 = tested on: U-251
SK-MEL-2 = tested on: SK-MEL-2
SK-MEL-28 = tested on: SK-MEL-28
OVCAR-8 = tested on: OVCAR-8
SF-295 = tested on: SF-295
COLO 205 = tested on: COLO 205
RXF 393 = tested on: RXF 393
XF498 = tested on: XF498
NCI-H23 = tested on: NCI-H23
HCC 2998 = tested on: HCC 2998
M14 = tested on: M14
HT-29 = tested on: HT-29
MOLT-4 = tested on: MOLT-4
HL-60 = tested on: HL-60
EKVX = tested on: EKVX
HOP-18 = tested on: HOP-18
M19-MEL = tested on: M19-MEL
DMS-114 = tested on: DMS-114

SMILES: CCOc1ccccc1NC(=O)CCC(=O)NN
- GI50 (RXF 631): > 100 µM (inactive)
- GI50 (HOP-92): > 100 µM (inactive)
- GI50 (SNB-78): > 100 µM (inactive)
- GI50 (SR): 2.75 µM (inactive)
- GI50 (SK-MEL-5): > 100 µM (inactive)
- GI50 (A549): > 100 µM (inactive)
- GI50 (SNB-19): > 100 µM (inactive)
- GI50 (ACHN): > 100 µM (inactive)
- GI50 (SK-OV-3): > 100 µM (inactive)
- GI50 (NCI-H226): > 100 µM (inactive)
- GI50 (LXFL 529): > 100 µM (inactive)
- GI50 (DLD-1): > 100 µM (inactive)
- GI50 (CCRF-CEM): > 100 µM (inactive)
- GI50 (Malme-3M): > 100 µM (inactive)
- GI50 (SN12C): > 100 µM (inactive)
- GI50 (DMS-273): > 100 µM (inactive)
- GI50 (OVCAR-3): > 100 µM (inactive)
- GI50 (RPMI-8226): 65.6 µM (inactive)
- GI50 (UACC-62): > 100 µM (inactive)
- GI50 (SNB-75): > 100 µM (inactive)
- GI50 (SF-539): > 100 µM (inactive)
- GI50 (NCI-H460): > 100 µM (inactive)
- GI50 (IGROV-1): > 100 µM (inactive)
- GI50 (CAKI-1): > 100 µM (inactive)
- GI50 (SF-268): > 100 µM (inactive)
- GI50 (KM12): > 100 µM (inactive)
- GI50 (786-0): > 100 µM (inactive)
- GI50 (K562): > 100 µM (inactive)
- GI50 (KM-20L2): > 100 µM (inactive)
- GI50 (LOX IMVI): > 100 µM (inactive)
- GI50 (A498): > 100 µM (inactive)
- GI50 (TK-10): > 100 µM (inactive)
- GI50 (NCI-H522): > 100 µM (inactive)
- GI50 (UO-31): > 100 µM (inactive)
- GI50 (OVCAR-5): > 100 µM (inactive)
- GI50 (OVCAR-4): > 100 µM (inactive)
- GI50 (UACC-257): > 100 µM (inactive)
- GI50 (HCT-116): > 100 µM (inactive)
- GI50 (HOP-62): > 100 µM (inactive)
- GI50 (HCT-15): > 100 µM
- GI50 (SW-620): > 100 µM (inactive)
- GI50 (U-251): > 100 µM (inactive)
- GI50 (SK-MEL-2): > 100 µM (inactive)
- GI50 (SK-MEL-28): > 100 µM (inactive)
- GI50 (OVCAR-8): > 100 µM (inactive)
- GI50 (SF-295): > 100 µM (inactive)
- GI50 (COLO 205): > 100 µM (inactive)
- GI50 (RXF 393): > 100 µM (inactive)
- GI50 (XF498): > 100 µM (inactive)
- GI50 (NCI-H23): > 100 µM (inactive)
- GI50 (HCC 2998): > 100 µM (inactive)
- GI50 (M14): > 100 µM (inactive)
- GI50 (HT-29): > 100 µM (inactive)
- GI50 (MOLT-4): > 100 µM (inactive)
- GI50 (HL-60): > 100 µM (inactive)

SMILES: COC(=O)C(Cc1nc2ccccc2nc1O)C(=O)C(=O)Nc1ccc(F)cc1 (configuration not stated)
- GI50 (RXF 631): 32.7 µM (inactive)
- GI50 (HOP-92): 20.8 µM (inactive)
- GI50 (SR): 33 µM (inactive)
- GI50 (SK-MEL-5): > 100 µM (inactive)
- GI50 (A549): > 100 µM (inactive)
- GI50 (SNB-19): > 100 µM (inactive)
- GI50 (ACHN): > 100 µM (inactive)
- GI50 (SK-OV-3): > 100 µM (inactive)
- GI50 (NCI-H226): > 100 µM (inactive)
- GI50 (LXFL 529): 15.7 µM (inactive)
- GI50 (DLD-1): 32.9 µM (inactive)
- GI50 (CCRF-CEM): 27.3 µM (inactive)
- GI50 (Malme-3M): 28.8 µM (inactive)
- GI50 (SN12C): 40.9 µM (inactive)
- GI50 (DMS-273): 48.1 µM (inactive)
- GI50 (OVCAR-3): 40.6 µM (inactive)
- GI50 (UACC-62): 24.2 µM (inactive)
- GI50 (SNB-75): 28.8 µM (inactive)
- GI50 (SF-539): 37 µM (inactive)
- GI50 (NCI-H460): > 100 µM (inactive)
- GI50 (IGROV-1): 53.5 µM (inactive)
- GI50 (EKVX): > 100 µM (inactive)
- GI50 (CAKI-1): > 100 µM (inactive)
- GI50 (SF-268): 13.1 µM (inactive)
- GI50 (KM12): 41 µM (inactive)
- GI50 (786-0): 25.4 µM (inactive)
- GI50 (HOP-18): > 100 µM (inactive)
- GI50 (M19-MEL): 46.7 µM (inactive)
- GI50 (KM-20L2): > 100 µM (inactive)
- GI50 (LOX IMVI): 41.3 µM (inactive)
- GI50 (TK-10): > 100 µM (inactive)
- GI50 (NCI-H522): 10.3 µM (inactive)
- GI50 (UO-31): > 100 µM (inactive)
- GI50 (OVCAR-4): 77.3 µM (inactive)
- GI50 (UACC-257): > 100 µM (inactive)
- GI50 (HCT-116): 41.2 µM (inactive)
- GI50 (HOP-62): > 100 µM (inactive)
- GI50 (HCT-15): > 100 µM
- GI50 (SW-620): 21.9 µM (inactive)
- GI50 (DMS-114): 22.9 µM (inactive)
- GI50 (SK-MEL-2): 34.4 µM (inactive)
- GI50 (SK-MEL-28): 27.4 µM (inactive)
- GI50 (OVCAR-8): 20 µM (inactive)
- GI50 (SF-295): > 100 µM (inactive)
- GI50 (COLO 205): 37.9 µM (inactive)
- GI50 (RXF 393): 23.4 µM (inactive)
- GI50 (XF498): 54 µM (inactive)
- GI50 (NCI-H23): 34 µM (inactive)
- GI50 (HCC 2998): > 100 µM (inactive)
- GI50 (M14): 74.8 µM (inactive)
- GI50 (HT-29): 42.6 µM (inactive)
- GI50 (MOLT-4): 58.6 µM (inactive)
- GI50 (HL-60): 45.5 µM (inactive)

SMILES: Cc1ccc(C(=O)CC2=Nc3nnc(CCCCCCCc4nnc5n4C(=O)C(CC(=O)c4ccc(C)cc4)=N5)n3C2=O)cc1
- GI50 (RXF 631): > 100 µM (inactive)
- GI50 (SR): > 100 µM (inactive)
- GI50 (SK-MEL-5): > 100 µM (inactive)
- GI50 (A549): > 100 µM (inactive)
- GI50 (SNB-19): > 100 µM (inactive)
- GI50 (ACHN): > 100 µM (inactive)
- GI50 (SK-OV-3): > 100 µM (inactive)
- GI50 (NCI-H226): > 100 µM (inactive)
- GI50 (LXFL 529): > 100 µM (inactive)
- GI50 (DLD-1): > 100 µM (inactive)
- GI50 (CCRF-CEM): > 100 µM (inactive)
- GI50 (Malme-3M): > 100 µM (inactive)
- GI50 (SN12C): > 100 µM (inactive)
- GI50 (OVCAR-3): > 100 µM (inactive)
- GI50 (RPMI-8226): > 100 µM (inactive)
- GI50 (UACC-62): > 100 µM (inactive)
- GI50 (SNB-75): 24.2 µM (inactive)
- GI50 (SF-539): > 100 µM (inactive)
- GI50 (NCI-H460): > 100 µM (inactive)
- GI50 (IGROV-1): > 100 µM (inactive)
- GI50 (EKVX): > 100 µM (inactive)
- GI50 (CAKI-1): > 100 µM (inactive)
- GI50 (SF-268): > 100 µM (inactive)
- GI50 (KM12): > 100 µM (inactive)
- GI50 (786-0): > 100 µM (inactive)
- GI50 (K562): > 100 µM (inactive)
- GI50 (HOP-18): > 100 µM (inactive)
- GI50 (M19-MEL): > 100 µM (inactive)
- GI50 (KM-20L2): > 100 µM (inactive)
- GI50 (LOX IMVI): > 100 µM (inactive)
- GI50 (TK-10): > 100 µM (inactive)
- GI50 (NCI-H522): > 100 µM (inactive)
- GI50 (UO-31): > 100 µM (inactive)
- GI50 (OVCAR-5): > 100 µM (inactive)
- GI50 (OVCAR-4): > 100 µM (inactive)
- GI50 (UACC-257): > 100 µM (inactive)
- GI50 (HCT-116): > 100 µM (inactive)
- GI50 (HOP-62): > 100 µM (inactive)
- GI50 (HCT-15): > 100 µM
- GI50 (SW-620): > 100 µM (inactive)
- GI50 (U-251): > 100 µM (inactive)
- GI50 (DMS-114): > 100 µM (inactive)
- GI50 (SK-MEL-28): > 100 µM (inactive)
- GI50 (OVCAR-8): > 100 µM (inactive)
- GI50 (SF-295): > 100 µM (inactive)
- GI50 (COLO 205): > 100 µM (inactive)
- GI50 (RXF 393): > 100 µM (inactive)
- GI50 (XF498): > 100 µM (inactive)
- GI50 (NCI-H23): > 100 µM (inactive)
- GI50 (HCC 2998): > 100 µM (inactive)
- GI50 (M14): > 100 µM (inactive)
- GI50 (HT-29): > 100 µM (inactive)
- GI50 (MOLT-4): > 100 µM (inactive)
- GI50 (HL-60): > 100 µM (inactive)
